# Calls of active or inactive are those of the source. The rule behind the calls is not given here.
# Experiments:
# Mus musculus [1] = test: Anti-fibrotic effect in bile duct ligation (BDL) surgery-induced hepatic fibrosis C57BL/6 mouse model assessed as inhibition of serum ALT level at 500 ug/kg, po five times a week for 2 weeks; type: functional, organism-based; conditions: dose 500.0 µg/kg
# [2] = Toxicity in CCl4-induced hepatic fibrosis C57BL/6 mouse model assessed as serum hypercalcemia at 500 ug/kg, po five times a week for 2 weeks by calcium assay kit; type: organism-based; conditions: in vivo, 0.5 mg/kg, 336 h, dose 500 µg/kg
# Mus musculus [3] = test: Anti-fibrotic effect in CCl4-induced hepatic fibrosis C57BL/6 mouse model assessed as inhibition of Timp-1 expression in liver at 500 ug/kg, po five times a week for 2 weeks by RT-qPCR analysis; type: functional, organism-based; conditions: dose 500.0 µg/kg
# Mus musculus [4] = test: Anti-fibrotic effect in CCl4-induced hepatic fibrosis C57BL/6 mouse model assessed as reduction in hepatic fibrosis lesions at 500 ug/kg, po five times a week for 2 weeks by Masson's Trichrome staining based assay; type: functional, organism-based; conditions: dose 500.0 µg/kg
# Mus musculus [5] = test: Anti-fibrotic effect in bile duct ligation (BDL) surgery-induced hepatic fibrosis C57BL/6 mouse model assessed as inhibition of serum total bile acid (TBA) level at 500 ug/kg, po five times a week for 2 weeks; type: functional, organism-based; conditions: dose 500.0 µg/kg
# Mus musculus [6] = test: Anti-fibrotic effect in improving CCl4-induced hepatic fibrosis C57BL/6 mouse model assessed as inhibition of fibronectin (Fn) expression in liver at 500 ug/kg, po five times a week for 2 weeks by RT-qPCR analysis; type: functional, organism-based; conditions: dose 500.0 µg/kg
# Mus musculus [7] = test: Anti-fibrotic effect in bile duct ligation (BDL) surgery-induced hepatic fibrosis C57BL/6 mouse model assessed as inhibition of Ctgf expression in liver at 500 ug/kg, po five times a week for 2 weeks by RT-qPCR analysis; type: functional, organism-based; conditions: dose 500.0 µg/kg
# [8] = Toxicity in bile duct ligation (BDL) surgery-induced hepatic fibrosis C57BL/6 mouse model assessed as serum hypercalcemia at 500 ug/kg, po five times a week for 2 weeks by calcium assay kit; type: organism-based; conditions: in vivo, 0.5 mg/kg, 336 h, dose 500 µg/kg
# [9] = Cytotoxicity against human LX-2 cells by CCK-8 assay; type: toxicity, cell-based
# Mus musculus [10] = test: Anti-fibrotic effect in bile duct ligation (BDL) surgery-induced hepatic fibrosis C57BL/6 mouse model assessed as decrease in inflammatory cell infiltration at 500 ug/kg, po five times a week for 2 weeks by Hematoxylin-Eosin (H&E) staining based assay; type: functional, organism-based; conditions: dose 500.0 µg/kg
# Mus musculus [11] = test: Anti-fibrotic effect in bile duct ligation (BDL) surgery-induced hepatic fibrosis C57BL/6 mouse model assessed as inhibition of serum AST level at 500 ug/kg, po five times a week for 2 weeks; type: functional, organism-based; conditions: dose 500.0 µg/kg
# Mus musculus [12] = test: Anti-fibrotic effect in CCl4-induced hepatic fibrosis C57BL/6 mouse model assessed as inhibition of serum ALT level at 500 ug/kg, po five times a week for 2 weeks; type: functional, organism-based; conditions: dose 500.0 µg/kg
# Mus musculus [13] = test: Anti-fibrotic effect in improving CCl4-induced hepatic fibrosis C57BL/6 mouse model assessed as uniform liver parenchyma at 500 ug/kg, po five times a week for 2 weeks by qualitative ultrasound imaging analysis; type: functional, organism-based; conditions: dose 500.0 µg/kg
# Mus musculus [14] = test: Anti-fibrotic effect in CCl4-induced hepatic fibrosis C57BL/6 mouse model assessed as inhibition of collagen deposition at 500 ug/kg, po five times a week for 2 weeks by Hematoxylin-Eosin (H&E) staining based assay; type: functional, organism-based; conditions: dose 500.0 µg/kg
# Mus musculus [15] = test: Anti-fibrotic effect in CCl4-induced hepatic fibrosis C57BL/6 mouse model assessed as inhibition of proliferation of fibrous tissue at 500 ug/kg, po five times a week for 2 weeks by Masson's Trichrome […] staining based assay; type: functional, organism-based; conditions: dose 500.0 µg/kg
# Mus musculus [16] = test: Anti-fibrotic effect in bile duct ligation (BDL) surgery-induced hepatic fibrosis C57BL/6 mouse model assessed as inhibition of Timp-1 expression in liver at 500 ug/kg, po five times a week for 2 weeks by RT-qPCR analysis; type: functional, organism-based; conditions: dose 500.0 µg/kg
# Mus musculus [17] = test: Anti-fibrotic effect in bile duct ligation (BDL) surgery-induced hepatic fibrosis C57BL/6 mouse model assessed as inhibition of fibronectin (Fn) expression in liver at 500 ug/kg, po five times a week for 2 weeks by RT-qPCR analysis; type: functional, organism-based; conditions: dose 500.0 µg/kg
# Mus musculus [18] = test: Anti-fibrotic effect in CCl4-induced hepatic fibrosis C57BL/6 mouse model assessed as inhibition of collagen deposition at 500 ug/kg, po five times a week for 2 weeks by Masson's Trichrome […] staining based assay; type: functional, organism-based; conditions: dose 500.0 µg/kg
# [19] = biological target: T1, Vitamin D3 receptor (Homo sapiens) (UniProt P11473); test: Agonist activity at Vitamin D receptor in human LX-2 cells assessed as transcriptional activity by measuring induction of CYP24A expression at 0.5 uM by RT-qPCR analysis relative to control; type: cell-based; conditions: filed as agonist
# T1 sequence (whole entry): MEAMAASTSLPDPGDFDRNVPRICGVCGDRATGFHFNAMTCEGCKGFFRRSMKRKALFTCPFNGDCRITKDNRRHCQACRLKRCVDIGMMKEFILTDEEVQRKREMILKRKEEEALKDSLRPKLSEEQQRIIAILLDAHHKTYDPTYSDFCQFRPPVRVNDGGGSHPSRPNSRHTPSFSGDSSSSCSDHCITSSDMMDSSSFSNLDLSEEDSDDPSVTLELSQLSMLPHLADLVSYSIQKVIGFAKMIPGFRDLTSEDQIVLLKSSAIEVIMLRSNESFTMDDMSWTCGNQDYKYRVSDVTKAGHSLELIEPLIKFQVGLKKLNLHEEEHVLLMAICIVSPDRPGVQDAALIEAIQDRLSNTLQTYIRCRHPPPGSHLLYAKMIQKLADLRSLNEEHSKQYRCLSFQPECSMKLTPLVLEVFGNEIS
# Mus musculus [20] = test: Anti-fibrotic effect in CCl4-induced hepatic fibrosis C57BL/6 mouse model assessed as decrease in inflammatory cell infiltration at 500 ug/kg, po five times a week for 2 weeks by Masson's Trichrome staining based assay; type: functional, organism-based; conditions: dose 500.0 µg/kg
# Mus musculus [21] = test: Anti-fibrotic effect in bile duct ligation (BDL) surgery-induced hepatic fibrosis C57BL/6 mouse model assessed as decrease in inflammatory cell infiltration at 500 ug/kg, po five times a week for 2 weeks by Masson's Trichrome staining based assay; type: functional, organism-based; conditions: dose 500.0 µg/kg
# Mus musculus [22] = test: Anti-fibrotic effect in CCl4-induced hepatic fibrosis C57BL/6 mouse model assessed as decrease in inflammatory cell infiltration at 500 ug/kg, po five times a week for 2 weeks by Hematoxylin-Eosin (H&E) staining based assay; type: functional, organism-based; conditions: dose 500.0 µg/kg
# Mus musculus [23] = test: Anti-fibrotic effect in CCl4-induced hepatic fibrosis C57BL/6 mouse model assessed as reduction the lesions at 500 ug/kg, po five times a week for 2 weeks by Hematoxylin-Eosin (H&E) staining based assay; type: functional, organism-based; conditions: dose 500.0 µg/kg
# Mus musculus [24] = test: Anti-fibrotic effect in improving CCl4-induced hepatic fibrosis C57BL/6 mouse model assessed as decrease in liver to kidney brightness ratio at 500 ug/kg, po five times a week for 2 weeks by qualitative ultrasound imaging analysis; type: functional, organism-based; conditions: dose 500.0 µg/kg
# Mus musculus [25] = test: Anti-fibrotic effect in bile duct ligation (BDL) surgery-induced hepatic fibrosis C57BL/6 mouse model assessed as reduction the lesions at 500 ug/kg, po five times a week for 2 weeks by Masson's Trichrome staining based assay; type: functional, organism-based; conditions: dose 500.0 µg/kg
# [26] = biological target: T1, Vitamin D3 receptor (Homo sapiens); test: Agonist activity at Vitamin D receptor in HEK293 cells assessed as receptor transactivation incubated for 48 hrs by dual-luciferase reporter assay; type: cell-based; conditions: filed as agonist, dose 0.01-1 µM
# Mus musculus [27] = test: Anti-fibrotic effect in CCl4-induced hepatic fibrosis C57BL/6 mouse model assessed as reduction the lesions at 500 ug/kg, po five times a week for 2 weeks by Masson's Trichrome staining based assay; type: functional, organism-based; conditions: dose 500.0 µg/kg
smiles,measurement,setting,value
OCc1ccc(/C=C/c2ccc(OCCCC(F)(F)F)cc2)cc1CO,Activity,Mus musculus [1],Active
same,Activity,[2],Non-Toxic
same,Activity,Mus musculus [3],Active
same,Activity,Mus musculus [4],Active
same,Activity,Mus musculus [5],Active
same,Activity,Mus musculus [6],Active
same,Activity,Mus musculus [7],Active
same,Activity,[8],Non-Toxic
same,IC50,[9],> 30 µM
same,Activity,Mus musculus [10],Active
same,Activity,Mus musculus [11],Active
same,Activity,Mus musculus [12],Active
same,Activity,Mus musculus [13],Active
same,Activity,Mus musculus [14],Active
same,Activity,Mus musculus [15],Active
same,Activity,Mus musculus [16],Active
same,Activity,Mus musculus [17],Active
same,Activity,Mus musculus [18],Active
same,Activity,[19],Active
same,Activity,Mus musculus [20],Active
same,Activity,Mus musculus [21],Active
same,Activity,Mus musculus [22],Active
same,Activity,Mus musculus [23],Active
same,Activity,Mus musculus [24],Active
same,Activity,Mus musculus [25],Active
same,Activity,[26],Dose-Dependent Effect
same,Activity,Mus musculus [27],Active

# Source: ChEMBL document CHEMBL5620415, “Design, synthesis and anti-hepatic fibrosis activity of novel diphenyl vitamin D receptor agonists” (Eur J Med Chem, 2023)
